# Data published in patent EP1165610B1, “PEPTIDE USEFUL IN TREATING MULTIPLE SCLEROSIS AND A PHARMACEUTICAL COMPOSITION COMPRISING THE SAME” (TECNOGEN S.C.P.A., priority 1999, dated 2006).
# Ends that are not written are not given here.
# System: SJL female mice
# Assay: In vivo activity in experimental allergic encephalitis (EAE) model, pre-immunization with peptide before EAE induction
# Details: for Incidence of EAE: number of mice with clinical EAE/number of mice immunized, after two weeks EAE induced with 300 nmoles P81-100 in CFA plus pertussis toxin, observed day 9 up to 60
# Experimental: The in vivo activity of the peptide compounds of formula (I) (SEQ ID NO: 1), were evaluated on four groups of SJL female mice, used at the age of 6-15 weeks. This strain of mice has been genetically selected for its ability to develop experimental allergic encephalitis (EAE).
# Two groups of mice have been immunized intraperitoneally with the peptide compound of formula (I) (SEQ ID NO: 1) (300 nmoles), dissolved in 0.05 ml of physiological solution and then emulsified with 0.05 ml of incomplete Freund's adjuvant (IFA) (Sigma, Italy).
# As positive and negative control, P81-100 (SEQ ID NO: 5) and IFA alone were used respectively.
# After two weeks EAE was induced in all groups by challenge with 300 nmoles of P81-100 (SEQ ID NO: 5) dissolved in 0.1 ml of physiological solution and then emulsified with 0.1 ml of complete Freund's adjuvant (CFA) (Sigma, Italy).
# Pertussis toxin (200 ng) (Fluka Chemie AG, Switzerland) was injected intravenously at the time of immunization and 2 days later. The role of pertussis toxin is to enhance the migration of autoreactive lymphocytes through the encephalic barrier (Bernard, et al., "J. Immunol." 114, 1537-1540, 1975).
# Mice were observed daily beginning at day 9 up to 60 for clinical signs of EAE and were graded according to the following clinical scale: 1, limp tail; 2, partial hind limp paralysis; 3, complete hind limp paralysis; 4, hind and front limp paralysis; 5, moribund (Broke S. et al., "Nature", 379, 343-346, 1996). Grade 5 mice were euthanized.
# [1] = 300 nmoles intraperitoneally in IFA
compound,measurement,setting,value
CC[C@H](C)[C@H](NC(=O)[C@H](CC(N)=O)NC(=O)[C@H](CCCCN)NC(=O)[C@H](Cc1ccccc1)NC(=O)[C@H](Cc1ccccc1)NC(=O)[C@H](Cc1c[nH]cn1)NC(=O)[C@@H](NC(=O)[C@@H](NC(=O)[C@@H]1CCCN1C(=O)[C@@H](N)CC(N)=O)C(C)C)C(C)C)C(=O)N[C@H](C(=O)N[C@H](C(=O)N1CCC[C@H]1C(=O)N[C@@H](CCCNC(=N)N)C(=O)N[C@H](C(=O)N1CCC[C@H]1C(=O)N1CCC[C@H]1C(=O)N1CCC[C@H]1C(=O)N[C@@H](CO)C(=O)N[C@@H](CCC(N)=O)C(=O)O)[C@@H](C)O)[C@@H](C)O)C(C)C [Peptide P81-100],Day of on-set,"mean day of onset ± SD, 300 nmoles intraperitoneally in IFA, after two weeks EAE induced with 300 nmoles P81-100 in CFA",33±4.24
same,Severity,"mean severity of sick mice ± SD, clinical scale 1-5, 300 nmoles intraperitoneally in IFA, after two weeks EAE induced with 300 nmoles P81-100 in CFA",1.0±0
same,Incidence of EAE,[1],2/17
NGVGHGFGNGVGPGTGPGSG [Peptide I],Incidence of EAE,[1],0/17
same,development of EAE,"result in words, summary of Table 1, SJL mice treated with peptide before EAE induction",didn't develop EAE
